Among the test systems are A549 NSCLC; HCT-15 colon; SNB-19 CNS; UACC-257 melanoma; SK-MEL-28 melanoma; OVCAR-4 ovarian; OVCAR-5 ovarian; RXF 393 renal; NCI-H23 lung.
What all share (assay): growth of human tumour cells (NCI), 48 h

Consider 8 molecules from PubChem BioAssay (NCI).

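Each compound was tested at five concentrations against cells in 96-well plates for 48 hours. GI50 is the concentration that inhibits growth by half. TGI is the concentration that stops growth completely.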

As to `C[n+]1c(/C=C/c2c[nH]c3ccccc23)ccc2ccccc21`, the GI50 in the assay on A549 NSCLC was 5.38 µM; in the assay on HCT-15 colon, 18 µM; in the assay on SNB-19 CNS it was 11.3 µM; in the assay with UACC-257 melanoma, 12.2 µM; in the assay with SK-MEL-28 melanoma, 13.8 µM; in the assay with OVCAR-4 ovarian, 7.07 µM. In addition, the GI50 was 18 µM in the assay on OVCAR-5 ovarian and 13.9 µM with RXF 393 renal. Further, the TGI in the assay with A549 NSCLC is 26 µM; in the assay with HCT-15 colon it was 53.4 µM; in the assay with SNB-19 CNS, 35.1 µM; in the assay on UACC-257 melanoma, 25.2 µM; with SK-MEL-28 melanoma, 27.3 µM; in the assay with OVCAR-4 ovarian, 37.1 µM. Also, the results for the TGI in the assay with OVCAR-5 ovarian and in the assay with RXF 393 renal were 59.1 µM and 27.9 µM, respectively.

`CC(C)N1CC2CN(Cc3ccccc3)CC(C1)C2=O`: the TGI in the assay with A549 NSCLC, with HCT-15 colon, in the assay with SNB-19 CNS, in the assay on UACC-257 melanoma, in the assay with SK-MEL-28 melanoma and with OVCAR-4 ovarian was more than 100 µM in each case. Besides, the TGI in the assay with NCI-H23 lung, in the assay on OVCAR-5 ovarian and in the assay on RXF 393 renal was more than 100 µM each time.

Turning to `Nc1c(C(=O)c2ccc(-c3cccnc3)cc2)cnn1-c1ccc(F)cc1`, the GI50 in the assay with A549 NSCLC is more than 14.4 µM; in the assay with HCT-15 colon, more than 20.2 µM; in the assay with SNB-19 CNS, more than 25 µM; in the assay with UACC-257 melanoma, more than 22.4 µM; with SK-MEL-28 melanoma it was more than 17.4 µM; in the assay on OVCAR-4 ovarian, 8.41 µM. For the same molecule, the GI50 was more than 22.7 µM in the assay on NCI-H23 lung, more than 25 µM in the assay on OVCAR-5 ovarian and 14.5 µM in the assay on RXF 393 renal. Moreover, the TGI in the assay on A549 NSCLC was more than 25 µM; in the assay with HCT-15 colon, more than 25 µM; in the assay with SNB-19 CNS it was more than 25 µM; in the assay with UACC-257 melanoma, more than 25 µM; in the assay with SK-MEL-28 melanoma, more than 25 µM; in the assay with OVCAR-4 ovarian, more than 24 µM. Also, the TGI with NCI-H23 lung, in the assay with OVCAR-5 ovarian and with RXF 393 renal was more than 25 µM in each case.

For `Cc1cc([N+](=O)[O-])ccc1NC(=O)C(=O)C(C(=O)c1ccccc1-c1ccccc1)C1OC(=O)c2ccccc21` (centres undefined), the TGI was more than 100 µM with A549 NSCLC; 36.8 µM in the assay with HCT-15 colon; 12.3 µM in the assay on SNB-19 CNS; 86.5 µM in the assay with UACC-257 melanoma; more than 100 µM with SK-MEL-28 melanoma; 77.9 µM in the assay with OVCAR-4 ovarian. Moreover, the figures for the TGI in the assay on NCI-H23 lung, in the assay on OVCAR-5 ovarian and in the assay on RXF 393 renal were 80 µM, 28.9 µM and 19.5 µM, respectively.

Consider `O=C1/C(=N\O)c2ccccc2S1(=O)=O`, for which the TGI with A549 NSCLC, in the assay with HCT-15 colon, in the assay on SNB-19 CNS, with UACC-257 melanoma, with OVCAR-4 ovarian and with OVCAR-5 ovarian was more than 100 µM throughout. Moreover, the TGI with RXF 393 renal was more than 100 µM.

Take `COc1ccc2sc3cccc(NCCN(C)C)c3c(=O)c2c1`: the GI50 was 2.57 µM in the assay with A549 NSCLC; 2.24 µM in the assay with HCT-15 colon; 2.78 µM in the assay on SNB-19 CNS; 1.78 µM in the assay with UACC-257 melanoma; 2.26 µM in the assay on SK-MEL-28 melanoma; 3.72 µM in the assay on OVCAR-4 ovarian. Besides, the GI50 was 3.64 µM with NCI-H23 lung, 3.42 µM in the assay with OVCAR-5 ovarian and 2.67 µM in the assay on RXF 393 renal. Further, the TGI with A549 NSCLC is 7.15 µM; with HCT-15 colon it was 6.65 µM; with SNB-19 CNS, 14.1 µM; with UACC-257 melanoma it was 3.32 µM; with SK-MEL-28 melanoma, 5.3 µM; in the assay on OVCAR-4 ovarian, 16.5 µM. Moreover, the values for the TGI in the assay with NCI-H23 lung, with OVCAR-5 ovarian and with RXF 393 renal were 14.2 µM, 14.5 µM and 9.76 µM, respectively.

For the molecule `C=CC(=O)NCCSCCCOC1(C(=O)O)CC(O)C(NC(C)=O)C(C(O)C(O)CO)O1` (centres undefined), the TGI with A549 NSCLC, in the assay with HCT-15 colon, in the assay with SNB-19 CNS, in the assay with UACC-257 melanoma, with SK-MEL-28 melanoma and in the assay with OVCAR-4 ovarian was more than 100 µM in each case. The TGI in the assay on NCI-H23 lung, in the assay with OVCAR-5 ovarian and with RXF 393 renal was more than 100 µM in each case.

Regarding `O=C1/C(=C\c2ccc(F)cc2)CN(C(=O)c2ccccc2)C/C1=C\c1ccc(F)cc1`, the GI50 with A549 NSCLC is 4.92 µM; in the assay on HCT-15 colon, 1.5 µM; in the assay on SNB-19 CNS, 5.05 µM; in the assay with UACC-257 melanoma, 2.41 µM; in the assay on SK-MEL-28 melanoma, 2.24 µM; with OVCAR-4 ovarian, 1.84 µM. Further, the GI50 is 4.83 µM in the assay on NCI-H23 lung, 2.64 µM in the assay on OVCAR-5 ovarian and 1.99 µM with RXF 393 renal. The TGI with A549 NSCLC was found to be 71.9 µM; in the assay with HCT-15 colon, 3.53 µM; in the assay on SNB-19 CNS it was 20.8 µM; with UACC-257 melanoma, 8.52 µM; in the assay on SK-MEL-28 melanoma it was 5.88 µM; with OVCAR-4 ovarian, 18.1 µM. The results for the TGI in the assay on NCI-H23 lung, in the assay on OVCAR-5 ovarian and with RXF 393 renal were 21.8 µM, 11.7 µM and 4.85 µM, respectively.
